pKi: −log10 of the molar value.
What was measured:
[1] = target: T1, Alpha-1B adrenergic receptor (Homo sapiens, UniProt P35368)
T1 sequence (P35368 whole entry): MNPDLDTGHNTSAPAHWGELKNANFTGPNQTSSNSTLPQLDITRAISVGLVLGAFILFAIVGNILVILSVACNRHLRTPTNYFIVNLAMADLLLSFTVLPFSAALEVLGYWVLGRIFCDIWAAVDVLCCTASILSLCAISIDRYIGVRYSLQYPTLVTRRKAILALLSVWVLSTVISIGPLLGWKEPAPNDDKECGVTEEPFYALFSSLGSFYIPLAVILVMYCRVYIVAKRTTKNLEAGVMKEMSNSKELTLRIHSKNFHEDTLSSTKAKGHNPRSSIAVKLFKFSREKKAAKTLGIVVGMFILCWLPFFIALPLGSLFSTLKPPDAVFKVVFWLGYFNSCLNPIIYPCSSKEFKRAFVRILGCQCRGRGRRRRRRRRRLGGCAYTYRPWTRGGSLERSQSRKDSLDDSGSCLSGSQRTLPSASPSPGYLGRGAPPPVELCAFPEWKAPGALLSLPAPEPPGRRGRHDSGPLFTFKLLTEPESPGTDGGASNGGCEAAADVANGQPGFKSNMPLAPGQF

[2] = target: T2, 5-hydroxytryptamine receptor 2C (Homo sapiens, UniProt P28335)
T2 sequence (P28335 whole entry): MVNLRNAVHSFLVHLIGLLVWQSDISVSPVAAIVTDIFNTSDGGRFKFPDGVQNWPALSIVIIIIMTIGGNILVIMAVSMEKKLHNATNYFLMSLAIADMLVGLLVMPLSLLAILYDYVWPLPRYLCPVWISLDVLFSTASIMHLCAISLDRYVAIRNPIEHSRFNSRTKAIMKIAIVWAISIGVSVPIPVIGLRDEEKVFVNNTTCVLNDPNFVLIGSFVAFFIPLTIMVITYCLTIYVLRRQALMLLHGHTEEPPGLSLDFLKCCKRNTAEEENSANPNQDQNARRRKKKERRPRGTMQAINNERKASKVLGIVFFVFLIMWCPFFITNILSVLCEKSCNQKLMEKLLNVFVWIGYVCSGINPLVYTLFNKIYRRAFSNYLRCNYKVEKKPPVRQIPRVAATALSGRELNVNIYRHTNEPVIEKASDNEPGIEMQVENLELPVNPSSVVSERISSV

[3] = target: 5-hydroxytryptamine receptor 1E (Homo sapiens, UniProt P28566)
Sequence of 5-hydroxytryptamine receptor 1E (P28566 whole entry): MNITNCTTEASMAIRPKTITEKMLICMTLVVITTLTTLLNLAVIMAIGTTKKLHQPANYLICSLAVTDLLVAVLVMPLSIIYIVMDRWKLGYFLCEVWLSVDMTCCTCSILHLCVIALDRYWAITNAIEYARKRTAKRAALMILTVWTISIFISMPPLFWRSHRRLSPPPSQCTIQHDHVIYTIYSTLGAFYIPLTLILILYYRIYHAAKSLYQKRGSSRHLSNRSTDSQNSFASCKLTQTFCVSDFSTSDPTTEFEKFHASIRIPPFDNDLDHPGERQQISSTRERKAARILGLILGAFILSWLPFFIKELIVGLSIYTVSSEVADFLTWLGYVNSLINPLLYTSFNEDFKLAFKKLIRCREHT

[4] = target: 5-hydroxytryptamine receptor 2A (Homo sapiens, UniProt P28223)
Sequence of 5-hydroxytryptamine receptor 2A (P28223 whole entry): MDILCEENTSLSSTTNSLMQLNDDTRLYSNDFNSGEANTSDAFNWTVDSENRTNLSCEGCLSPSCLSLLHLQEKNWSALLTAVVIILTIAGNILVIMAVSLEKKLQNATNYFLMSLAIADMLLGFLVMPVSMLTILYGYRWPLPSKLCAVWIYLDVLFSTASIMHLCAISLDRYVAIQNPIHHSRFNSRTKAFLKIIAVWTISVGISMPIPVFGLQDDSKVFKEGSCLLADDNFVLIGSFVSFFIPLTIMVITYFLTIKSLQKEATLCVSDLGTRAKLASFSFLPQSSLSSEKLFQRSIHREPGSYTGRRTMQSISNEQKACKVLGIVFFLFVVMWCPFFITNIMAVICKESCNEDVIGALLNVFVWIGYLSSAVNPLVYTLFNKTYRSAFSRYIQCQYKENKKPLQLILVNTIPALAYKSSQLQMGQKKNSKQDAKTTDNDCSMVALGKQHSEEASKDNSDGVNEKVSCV

[5] = target: 5-hydroxytryptamine receptor 6 (Homo sapiens, UniProt P50406)
Sequence of 5-hydroxytryptamine receptor 6 (P50406 whole entry): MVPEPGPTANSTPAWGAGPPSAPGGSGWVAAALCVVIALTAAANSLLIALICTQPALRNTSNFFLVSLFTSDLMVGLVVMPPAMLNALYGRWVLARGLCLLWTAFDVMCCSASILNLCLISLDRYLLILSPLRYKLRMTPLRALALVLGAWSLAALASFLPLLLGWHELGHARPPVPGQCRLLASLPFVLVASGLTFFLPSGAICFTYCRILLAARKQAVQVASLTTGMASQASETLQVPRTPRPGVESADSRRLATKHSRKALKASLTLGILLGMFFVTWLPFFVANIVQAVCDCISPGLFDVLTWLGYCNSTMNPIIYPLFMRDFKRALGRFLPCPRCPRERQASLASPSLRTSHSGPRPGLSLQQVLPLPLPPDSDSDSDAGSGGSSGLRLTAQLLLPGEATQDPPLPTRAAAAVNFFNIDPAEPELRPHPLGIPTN

Measured: pKi

Cc1cccc(S(=O)(=O)N(C)[C@H](C)CCN2CCC(C)CC2)c1 [SB-258719]
< 5.00: [1] | [2] | [3] | [4] | [5]

Source: BindingDB's records for doi:10.1021/jm970519e (Smithkline Beecham Pharmaceuticals, 1998)
